Assays:
O-acyltransferase = O-acyltransferase (Oryctolagus cuniculus, UniProt G1SFD9); test: In vitro inhibition of intestinal Acyl coenzyme A:cholesterol acyltransferase in cholesterol-fed rabbits.
Rattus norvegicus = test: Tested in vivo for the ability to lower the total plasma cholesterol (TC) in an chronic peanut oil/cholesterol/cholic Acid (APCC) model at the dose of 30 mg/kg; assay type: functional

O-acyltransferase, sequence (G1SFD9 1-524): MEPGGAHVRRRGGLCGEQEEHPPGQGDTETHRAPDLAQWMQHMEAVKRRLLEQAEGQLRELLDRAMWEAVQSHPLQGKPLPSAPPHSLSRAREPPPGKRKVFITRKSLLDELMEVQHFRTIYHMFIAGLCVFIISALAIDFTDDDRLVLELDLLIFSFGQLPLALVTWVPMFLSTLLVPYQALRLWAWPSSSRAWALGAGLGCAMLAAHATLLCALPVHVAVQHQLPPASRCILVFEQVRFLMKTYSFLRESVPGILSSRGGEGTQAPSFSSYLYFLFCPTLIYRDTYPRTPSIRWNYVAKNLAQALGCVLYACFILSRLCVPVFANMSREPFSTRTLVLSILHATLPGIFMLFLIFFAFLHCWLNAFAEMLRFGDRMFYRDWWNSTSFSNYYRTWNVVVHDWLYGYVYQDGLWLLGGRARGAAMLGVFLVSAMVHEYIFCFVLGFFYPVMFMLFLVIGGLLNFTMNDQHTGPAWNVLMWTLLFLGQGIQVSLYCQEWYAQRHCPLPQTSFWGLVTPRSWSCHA

SMILES	IC50 (O-acyltransferase) [nM]	Delta TC (Rattus norvegicus) [%]
CCCc1ccc(NC(=O)Nc2c(C(C)C)cccc2C(C)C)cc1	38	
CCCCCCCCCCCCCCc1ccc(NC(=O)Nc2c(C(C)C)cccc2C(C)C)cc1	500	-25
Cc1ccc(NC(=O)Nc2c(C(C)C)cccc2C(C)C)cc1	250	
CCCCc1ccc(NC(=O)Nc2c(C(C)C)cccc2C(C)C)cc1	29	-12
CCCCCCCCCCCCCc1ccc(NC(=O)Nc2c(C(C)C)cccc2C(C)C)cc1	11	-70
CCCCCCCCCCCc1ccc(NC(=O)Nc2c(C(C)C)cccc2C(C)C)cc1	9	-29
CC(C)c1cccc(C(C)C)c1NC(=O)Nc1ccc(C(C)(C)C)cc1	168	-10
CCCCCCCCCCCCc1ccc(NC(=O)Nc2c(C(C)C)cccc2C(C)C)cc1	15	-47
CCCCCCc1ccc(NC(=O)Nc2c(C(C)C)cccc2C(C)C)cc1	26	-18
CCCCCc1ccc(NC(=O)Nc2c(C(C)C)cccc2C(C)C)cc1	32	
CCc1ccc(NC(=O)Nc2c(C(C)C)cccc2C(C)C)cc1	100	
CCCCCCCN(Cc1ccc(CC(C)(C)C)cc1)C(=O)Nc1ccc(F)cc1F [CL-277082]		-54
CC(C)c1ccc(NC(=O)Nc2c(C(C)C)cccc2C(C)C)cc1	66	
CCCCCCCCc1ccc(NC(=O)Nc2c(C(C)C)cccc2C(C)C)cc1	11	-29
CCCCCCCCCCc1ccc(NC(=O)Nc2c(C(C)C)cccc2C(C)C)cc1	13	-25
CCCCCCCCCc1ccc(NC(=O)Nc2c(C(C)C)cccc2C(C)C)cc1	9	-8
CCCCCCCc1ccc(NC(=O)Nc2c(C(C)C)cccc2C(C)C)cc1	19	-21

— ChEMBL document CHEMBL1152031, “Substituted N,N-diphenyl ureas as potent inhibitors of acyl-CoA:Cholesterol acyltransferase (ACAT)” (Bioorg Med Chem Lett, 1993)
